Activity calls are given as the source filed them. For most assays here, no stated cut-off is given here; in the data, actives have a measured Kd and inactives only a lower limit.
Tests used:
[1] = target: Ribosomal protein S6 kinase alpha-6 (Homo sapiens, UniProt Q9UK32)
[2] = target: Ribosomal protein S6 kinase beta-1 (Homo sapiens, UniProt P23443)
[3] = target: Serine/threonine-protein kinase MRCK beta (Homo sapiens, UniProt Q9Y5S2)
[4] = target: Mitogen-activated protein kinase kinase kinase 4 (Homo sapiens, UniProt Q9Y6R4)
[5] = target: T1, Discoidin domain-containing receptor 2 (Homo sapiens, UniProt Q16832)
T1 sequence (Q16832 whole entry): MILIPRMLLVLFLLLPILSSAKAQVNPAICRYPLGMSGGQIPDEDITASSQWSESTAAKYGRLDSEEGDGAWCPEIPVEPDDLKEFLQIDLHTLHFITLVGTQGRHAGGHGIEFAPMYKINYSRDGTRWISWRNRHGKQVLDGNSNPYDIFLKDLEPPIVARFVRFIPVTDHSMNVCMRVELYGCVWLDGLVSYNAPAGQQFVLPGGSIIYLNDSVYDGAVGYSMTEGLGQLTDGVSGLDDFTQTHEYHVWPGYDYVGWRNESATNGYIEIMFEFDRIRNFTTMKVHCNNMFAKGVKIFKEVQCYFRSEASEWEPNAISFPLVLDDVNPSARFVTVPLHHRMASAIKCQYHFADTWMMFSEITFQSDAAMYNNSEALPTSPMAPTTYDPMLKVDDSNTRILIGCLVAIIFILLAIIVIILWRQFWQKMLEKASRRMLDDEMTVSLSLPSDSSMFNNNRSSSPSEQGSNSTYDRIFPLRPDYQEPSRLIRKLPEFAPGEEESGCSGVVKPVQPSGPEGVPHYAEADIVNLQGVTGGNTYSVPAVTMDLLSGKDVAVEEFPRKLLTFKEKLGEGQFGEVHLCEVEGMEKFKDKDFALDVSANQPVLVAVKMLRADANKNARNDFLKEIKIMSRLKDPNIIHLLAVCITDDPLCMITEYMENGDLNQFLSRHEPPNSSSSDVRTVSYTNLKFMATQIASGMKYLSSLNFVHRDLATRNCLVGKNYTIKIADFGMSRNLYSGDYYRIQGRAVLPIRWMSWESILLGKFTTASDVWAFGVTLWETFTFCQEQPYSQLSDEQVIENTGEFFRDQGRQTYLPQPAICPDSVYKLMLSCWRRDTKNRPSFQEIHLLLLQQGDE

[6] = target: T2, cGMP-dependent protein kinase 1 (Homo sapiens, UniProt Q13976)
T2 sequence (Q13976 whole entry): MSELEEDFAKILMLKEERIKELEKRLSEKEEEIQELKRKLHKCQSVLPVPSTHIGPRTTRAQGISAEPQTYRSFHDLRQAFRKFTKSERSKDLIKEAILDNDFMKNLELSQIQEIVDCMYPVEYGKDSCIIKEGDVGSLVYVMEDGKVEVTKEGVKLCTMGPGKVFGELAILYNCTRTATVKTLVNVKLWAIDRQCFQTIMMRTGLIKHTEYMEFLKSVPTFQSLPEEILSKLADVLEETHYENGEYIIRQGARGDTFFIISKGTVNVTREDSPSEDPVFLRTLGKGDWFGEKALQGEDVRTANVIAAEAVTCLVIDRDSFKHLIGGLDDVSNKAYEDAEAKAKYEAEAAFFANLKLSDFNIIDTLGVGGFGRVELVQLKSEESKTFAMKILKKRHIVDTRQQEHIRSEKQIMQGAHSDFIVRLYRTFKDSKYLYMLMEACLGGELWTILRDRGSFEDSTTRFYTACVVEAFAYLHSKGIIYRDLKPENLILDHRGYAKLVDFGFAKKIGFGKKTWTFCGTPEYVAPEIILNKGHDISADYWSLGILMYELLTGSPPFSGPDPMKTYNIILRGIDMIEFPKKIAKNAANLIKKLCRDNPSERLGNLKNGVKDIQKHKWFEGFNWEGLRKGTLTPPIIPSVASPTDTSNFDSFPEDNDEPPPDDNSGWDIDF

[7] = target: NADH dehydrogenase [ubiquinone] 1 alpha subcomplex subunit 13 (Homo sapiens, UniProt Q9P0J0)
Chain of NADH dehydrogenase [ubiquinone] 1 alpha subcomplex subunit 13 (Q9P0J0 whole entry, one chain of several): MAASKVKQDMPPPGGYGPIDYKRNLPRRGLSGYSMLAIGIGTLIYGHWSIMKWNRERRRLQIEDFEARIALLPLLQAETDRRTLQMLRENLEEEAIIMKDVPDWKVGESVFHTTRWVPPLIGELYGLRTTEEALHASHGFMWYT

[8] = target: T3, Mitogen-activated protein kinase kinase kinase kinase 3 (Homo sapiens, UniProt Q8IVH8)
T3 sequence (Q8IVH8 whole entry): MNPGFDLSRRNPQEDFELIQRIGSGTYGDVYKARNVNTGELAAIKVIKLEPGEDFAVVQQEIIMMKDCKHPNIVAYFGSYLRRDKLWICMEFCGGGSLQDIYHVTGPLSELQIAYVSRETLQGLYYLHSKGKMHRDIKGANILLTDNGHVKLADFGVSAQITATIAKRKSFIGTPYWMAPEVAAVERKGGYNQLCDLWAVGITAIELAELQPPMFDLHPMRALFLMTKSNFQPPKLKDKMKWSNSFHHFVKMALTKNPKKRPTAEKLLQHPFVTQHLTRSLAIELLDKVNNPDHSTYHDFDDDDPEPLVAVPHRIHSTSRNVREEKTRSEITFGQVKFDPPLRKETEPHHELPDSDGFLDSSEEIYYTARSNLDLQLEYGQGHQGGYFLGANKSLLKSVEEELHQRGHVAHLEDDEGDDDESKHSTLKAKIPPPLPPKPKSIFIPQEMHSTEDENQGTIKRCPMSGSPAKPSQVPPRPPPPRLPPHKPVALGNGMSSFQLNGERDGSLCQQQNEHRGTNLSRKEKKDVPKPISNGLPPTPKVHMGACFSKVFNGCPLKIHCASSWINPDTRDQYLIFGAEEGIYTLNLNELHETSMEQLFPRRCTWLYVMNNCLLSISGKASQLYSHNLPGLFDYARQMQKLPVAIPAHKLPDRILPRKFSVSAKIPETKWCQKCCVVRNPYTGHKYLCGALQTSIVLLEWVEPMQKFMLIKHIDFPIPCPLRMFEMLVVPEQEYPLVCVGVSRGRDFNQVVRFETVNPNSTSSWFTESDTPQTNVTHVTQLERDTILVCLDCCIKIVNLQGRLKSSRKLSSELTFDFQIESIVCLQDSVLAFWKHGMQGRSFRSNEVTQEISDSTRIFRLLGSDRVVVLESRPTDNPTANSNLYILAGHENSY

[9] = target: Tyrosine-protein kinase ABL1 (Homo sapiens, UniProt P00519)
Chain of Tyrosine-protein kinase ABL1 (P00519 whole entry): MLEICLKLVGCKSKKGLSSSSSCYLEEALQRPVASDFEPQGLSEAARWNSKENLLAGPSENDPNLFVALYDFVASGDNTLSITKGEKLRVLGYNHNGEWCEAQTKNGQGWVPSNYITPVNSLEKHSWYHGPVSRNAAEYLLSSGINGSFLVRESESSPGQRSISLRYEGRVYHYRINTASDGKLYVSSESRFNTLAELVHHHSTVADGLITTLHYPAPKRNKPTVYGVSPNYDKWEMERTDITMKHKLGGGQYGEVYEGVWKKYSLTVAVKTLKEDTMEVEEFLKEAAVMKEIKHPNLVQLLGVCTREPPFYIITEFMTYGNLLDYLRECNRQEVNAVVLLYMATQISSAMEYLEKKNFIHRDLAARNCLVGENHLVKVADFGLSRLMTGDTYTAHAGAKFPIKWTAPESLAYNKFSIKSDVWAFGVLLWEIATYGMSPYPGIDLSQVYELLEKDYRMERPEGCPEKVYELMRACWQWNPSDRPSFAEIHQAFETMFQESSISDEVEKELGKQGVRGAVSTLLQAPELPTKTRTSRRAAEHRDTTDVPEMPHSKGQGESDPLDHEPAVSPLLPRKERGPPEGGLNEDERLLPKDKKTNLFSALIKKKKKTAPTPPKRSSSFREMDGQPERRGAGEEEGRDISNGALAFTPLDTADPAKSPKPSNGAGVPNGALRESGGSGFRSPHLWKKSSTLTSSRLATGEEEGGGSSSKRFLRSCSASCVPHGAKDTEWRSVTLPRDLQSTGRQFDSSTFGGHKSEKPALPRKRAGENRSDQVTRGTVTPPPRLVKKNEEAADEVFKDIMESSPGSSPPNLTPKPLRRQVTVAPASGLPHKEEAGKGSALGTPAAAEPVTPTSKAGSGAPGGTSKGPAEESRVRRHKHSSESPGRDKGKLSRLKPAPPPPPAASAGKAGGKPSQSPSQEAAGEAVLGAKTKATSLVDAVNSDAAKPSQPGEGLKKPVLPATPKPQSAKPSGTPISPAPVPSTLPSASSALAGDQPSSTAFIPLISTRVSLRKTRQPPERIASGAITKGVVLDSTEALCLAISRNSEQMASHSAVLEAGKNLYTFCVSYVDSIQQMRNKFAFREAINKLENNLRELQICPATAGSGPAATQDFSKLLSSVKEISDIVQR

Chain of Ribosomal protein S6 kinase alpha-6 (Q9UK32 whole entry): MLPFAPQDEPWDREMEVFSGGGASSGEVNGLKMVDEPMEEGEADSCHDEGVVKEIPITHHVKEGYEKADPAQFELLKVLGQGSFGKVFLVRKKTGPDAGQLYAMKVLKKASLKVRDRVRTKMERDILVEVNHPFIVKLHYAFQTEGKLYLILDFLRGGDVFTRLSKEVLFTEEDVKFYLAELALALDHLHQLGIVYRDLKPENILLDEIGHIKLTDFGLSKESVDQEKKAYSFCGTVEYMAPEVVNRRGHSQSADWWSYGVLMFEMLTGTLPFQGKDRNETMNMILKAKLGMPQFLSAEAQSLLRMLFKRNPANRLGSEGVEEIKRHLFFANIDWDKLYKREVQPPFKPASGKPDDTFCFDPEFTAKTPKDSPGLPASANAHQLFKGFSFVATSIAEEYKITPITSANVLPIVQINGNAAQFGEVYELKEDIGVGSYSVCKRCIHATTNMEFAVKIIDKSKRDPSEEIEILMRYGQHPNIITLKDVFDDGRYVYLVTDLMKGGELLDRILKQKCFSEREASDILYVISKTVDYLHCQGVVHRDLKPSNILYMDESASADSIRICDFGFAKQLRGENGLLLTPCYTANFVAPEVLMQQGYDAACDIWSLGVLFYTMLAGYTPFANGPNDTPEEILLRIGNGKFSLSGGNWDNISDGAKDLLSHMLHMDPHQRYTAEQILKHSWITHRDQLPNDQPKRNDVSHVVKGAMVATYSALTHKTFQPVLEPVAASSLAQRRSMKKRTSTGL
Chain of Ribosomal protein S6 kinase beta-1 (P23443 whole entry): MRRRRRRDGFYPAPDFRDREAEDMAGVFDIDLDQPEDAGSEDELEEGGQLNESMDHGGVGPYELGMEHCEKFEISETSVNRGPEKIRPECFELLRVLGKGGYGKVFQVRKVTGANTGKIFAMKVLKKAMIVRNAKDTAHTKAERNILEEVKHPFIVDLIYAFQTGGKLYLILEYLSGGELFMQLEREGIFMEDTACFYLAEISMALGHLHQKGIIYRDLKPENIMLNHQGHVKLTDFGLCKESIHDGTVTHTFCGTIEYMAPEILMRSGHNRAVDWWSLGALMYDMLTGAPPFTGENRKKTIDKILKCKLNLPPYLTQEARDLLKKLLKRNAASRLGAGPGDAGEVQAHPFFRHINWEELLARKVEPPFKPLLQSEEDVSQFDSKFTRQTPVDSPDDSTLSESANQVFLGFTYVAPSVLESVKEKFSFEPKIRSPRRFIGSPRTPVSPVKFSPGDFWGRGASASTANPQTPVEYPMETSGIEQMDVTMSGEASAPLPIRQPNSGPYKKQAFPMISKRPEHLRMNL
Chain of Serine/threonine-protein kinase MRCK beta (Q9Y5S2 whole entry): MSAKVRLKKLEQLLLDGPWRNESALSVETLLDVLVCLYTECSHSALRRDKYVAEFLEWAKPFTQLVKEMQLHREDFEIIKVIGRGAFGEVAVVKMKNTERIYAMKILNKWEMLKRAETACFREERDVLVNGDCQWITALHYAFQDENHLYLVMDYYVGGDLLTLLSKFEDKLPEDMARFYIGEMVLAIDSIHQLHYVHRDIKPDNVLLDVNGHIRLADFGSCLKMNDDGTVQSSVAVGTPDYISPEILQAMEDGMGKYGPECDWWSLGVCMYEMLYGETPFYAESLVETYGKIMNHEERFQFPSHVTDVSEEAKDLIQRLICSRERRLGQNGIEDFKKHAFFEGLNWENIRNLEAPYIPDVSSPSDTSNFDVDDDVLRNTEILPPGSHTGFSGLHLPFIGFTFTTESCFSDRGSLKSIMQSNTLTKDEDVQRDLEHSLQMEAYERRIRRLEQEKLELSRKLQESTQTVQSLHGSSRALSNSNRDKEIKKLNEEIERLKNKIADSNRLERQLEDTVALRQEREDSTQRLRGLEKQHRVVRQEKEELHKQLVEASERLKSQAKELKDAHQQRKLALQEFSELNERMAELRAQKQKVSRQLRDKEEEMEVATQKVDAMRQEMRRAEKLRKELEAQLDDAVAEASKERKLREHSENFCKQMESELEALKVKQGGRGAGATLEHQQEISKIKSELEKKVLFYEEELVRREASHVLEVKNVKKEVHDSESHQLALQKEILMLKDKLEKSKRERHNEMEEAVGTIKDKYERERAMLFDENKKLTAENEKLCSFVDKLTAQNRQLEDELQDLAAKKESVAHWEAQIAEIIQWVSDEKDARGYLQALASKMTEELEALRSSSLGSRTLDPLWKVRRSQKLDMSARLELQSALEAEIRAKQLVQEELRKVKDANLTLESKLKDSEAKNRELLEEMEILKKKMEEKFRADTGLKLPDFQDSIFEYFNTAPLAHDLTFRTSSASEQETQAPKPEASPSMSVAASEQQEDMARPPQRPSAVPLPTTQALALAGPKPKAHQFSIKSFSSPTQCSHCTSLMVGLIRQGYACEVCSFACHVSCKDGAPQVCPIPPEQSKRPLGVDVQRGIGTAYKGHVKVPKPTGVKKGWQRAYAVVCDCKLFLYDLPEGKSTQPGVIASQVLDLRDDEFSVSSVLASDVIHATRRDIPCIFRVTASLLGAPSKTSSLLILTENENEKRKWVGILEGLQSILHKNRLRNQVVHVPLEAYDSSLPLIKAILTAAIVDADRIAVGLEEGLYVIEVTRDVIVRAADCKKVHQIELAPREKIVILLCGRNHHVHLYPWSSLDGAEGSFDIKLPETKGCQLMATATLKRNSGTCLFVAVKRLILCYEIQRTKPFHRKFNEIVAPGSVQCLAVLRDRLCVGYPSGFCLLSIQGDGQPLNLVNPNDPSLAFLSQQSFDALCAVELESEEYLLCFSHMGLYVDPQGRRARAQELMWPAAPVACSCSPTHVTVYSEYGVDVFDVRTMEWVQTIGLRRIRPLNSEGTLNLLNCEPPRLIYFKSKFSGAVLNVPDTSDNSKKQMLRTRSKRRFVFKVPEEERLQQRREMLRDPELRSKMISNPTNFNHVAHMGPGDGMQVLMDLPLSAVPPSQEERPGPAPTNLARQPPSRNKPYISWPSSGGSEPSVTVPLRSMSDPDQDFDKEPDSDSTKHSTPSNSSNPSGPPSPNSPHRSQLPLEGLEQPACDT

| Structure (SMILES) | Kd [1] | Kd [2] | Kd [3] | Kd [4] | Kd [5] | Kd [6] | Kd [7] | Kd [8] | Kd [9] |
| --- | --- | --- | --- | --- | --- | --- | --- | --- | --- |
| COc1cc2ncnc(Nc3ccc(F)c(Cl)c3)c2cc1NC(=O)/C=C/CN1CCCCC1 [DACOMITINIB ANHYDROUS] | > 30 µM (inactive) | > 30 µM (inactive) | > 30 µM (inactive) | > 30 µM (inactive) | > 30 µM (inactive) | > 30 µM (inactive) | > 30 µM (inactive) | > 30 µM (inactive) | > 30 µM (inactive) |
| C#Cc1cccc(Nc2ncnc3cc4c(cc23)OCCOCCOCCO4)c1 [ICOTINIB] | > 30 µM (inactive) | > 30 µM (inactive) | > 30 µM (inactive) | > 30 µM (inactive) | > 30 µM (inactive) | > 30 µM (inactive) | > 30 µM (inactive) | > 30 µM (inactive) | > 30 µM (inactive) |
| Cc1cc(C(=O)Nc2cc(Oc3ccc4nc(NC(=O)C5CC5)cn4n3)ccc2C)n(C)n1 [TAK-593] | > 30 µM (inactive) | > 30 µM (inactive) | > 30 µM (inactive) | > 30 µM (inactive) | 19.3 µM (active) | > 30 µM (inactive) | > 30 µM (inactive) | > 30 µM (inactive) | 0.918 µM (active) |
| COc1cc2ncnc(Nc3ccc(O)cc3)c2cc1OC [WHI-P131] | 5.9 µM (active) | > 30 µM (inactive) | > 30 µM (inactive) | > 30 µM (inactive) | > 30 µM (inactive) | > 30 µM (inactive) | > 30 µM (inactive) | > 30 µM (inactive) | > 30 µM (inactive) |
| O=C(O)c1ccc2c(c1)nc(Nc1cccc(Cl)c1)c1ccncc12 [SILMITASERTIB] | 3.42 µM (active) | > 30 µM (inactive) | > 30 µM (inactive) | > 30 µM (inactive) | > 30 µM (inactive) | > 30 µM (inactive) | > 30 µM (inactive) | > 30 µM (inactive) | > 30 µM (inactive) |
| O[C@H]1CC[C@H](Nc2ncc3nc(Nc4c(F)cc(F)cc4F)n([C@H]4CCOC4)c3n2)CC1 [TANZISERTIB] | > 30 µM (inactive) | > 30 µM (inactive) | > 30 µM (inactive) | > 30 µM (inactive) | > 30 µM (inactive) | > 30 µM (inactive) | > 30 µM (inactive) | > 30 µM (inactive) | > 30 µM (inactive) |
| S=C(NCc1ccc2c(c1)OCO2)N1CCN(c2ncnc3c2oc2ccccc23)CC1 [AMUVATINIB] | > 30 µM (inactive) | > 30 µM (inactive) | > 30 µM (inactive) | > 30 µM (inactive) | > 30 µM (inactive) | > 30 µM (inactive) | > 30 µM (inactive) | > 30 µM (inactive) | > 30 µM (inactive) |
| CC1(COc2ccc3c(c2)ncn3-c2ccc3cccc(N4CCC(N)CC4)c3n2)COC1 [CRENOLANIB] | 1.98 µM (active) | > 30 µM (inactive) | > 30 µM (inactive) | > 30 µM (inactive) | > 30 µM (inactive) | > 30 µM (inactive) | > 30 µM (inactive) | 0.406 µM (active) | > 30 µM (inactive) |
| CNC(=O)c1cc(COc2nnc(Nc3ccc(Cl)cc3)c3ccoc23)ccn1 [TELATINIB] | > 30 µM (inactive) | > 30 µM (inactive) | > 30 µM (inactive) | > 30 µM (inactive) | > 30 µM (inactive) | > 30 µM (inactive) | > 30 µM (inactive) | > 30 µM (inactive) | > 30 µM (inactive) |
| COc1cc(F)c(F)c(Nc2ccc(I)cc2F)c1NS(=O)(=O)C1(C[C@H](O)CO)CC1 [REFAMETINIB] | > 30 µM (inactive) | > 30 µM (inactive) | > 30 µM (inactive) | > 30 µM (inactive) | > 30 µM (inactive) | > 30 µM (inactive) | > 30 µM (inactive) | > 30 µM (inactive) | > 30 µM (inactive) |
| COc1cccc2cc(-c3nc([C@H]4CC[C@H](C(=O)O)CC4)n4ncnc(N)c34)[nH]c12 [OSI-027] | > 30 µM (inactive) | > 30 µM (inactive) | > 30 µM (inactive) | > 30 µM (inactive) | > 30 µM (inactive) | > 30 µM (inactive) | > 30 µM (inactive) | > 30 µM (inactive) | > 30 µM (inactive) |
| CNC(=O)c1ccc(Nc2ncc(C(F)(F)F)c(NCc3nccnc3N(C)S(C)(=O)=O)n2)cc1 [DEFACTINIB] | > 30 µM (inactive) | > 30 µM (inactive) | > 30 µM (inactive) | > 30 µM (inactive) | > 30 µM (inactive) | > 30 µM (inactive) | > 30 µM (inactive) | > 30 µM (inactive) | > 30 µM (inactive) |
| Cc1ccc(C(=O)Nc2ccc(Oc3cc4cnn(C)c4cc3-c3cn[nH]c3)c(F)c2)c(=O)n1-c1ccc(F)cc1 [MERESTINIB] | > 30 µM (inactive) | > 30 µM (inactive) | > 30 µM (inactive) | > 30 µM (inactive) | 0.908 µM (active) | > 30 µM (inactive) | > 30 µM (inactive) | > 30 µM (inactive) | > 30 µM (inactive) |
| CC(C)(O)CC(=O)NCCn1ccc2ncnc(Nc3ccc(Oc4cccc(C(F)(F)F)c4)c(Cl)c3)c21 [TAK-285] | > 30 µM (inactive) | > 30 µM (inactive) | > 30 µM (inactive) | > 30 µM (inactive) | > 30 µM (inactive) | > 30 µM (inactive) | > 30 µM (inactive) | > 30 µM (inactive) | > 30 µM (inactive) |
| COc1cccc(Nc2ncnn3ccc(CN4CC[C@@H](N)[C@H](O)C4)c23)c1 [BMS-690514] | > 30 µM (inactive) | > 30 µM (inactive) | > 30 µM (inactive) | > 30 µM (inactive) | > 30 µM (inactive) | > 30 µM (inactive) |  | > 30 µM (inactive) | 0.128 µM (active) |
| Cc1c(NC(=O)OC[C@@H]2COCCN2)cn2ncnc(Nc3ccc4c(cnn4Cc4cccc(F)c4)c3)c12 [AC-480] | > 30 µM (inactive) | > 30 µM (inactive) | > 30 µM (inactive) | > 30 µM (inactive) | > 30 µM (inactive) | > 30 µM (inactive) |  | > 30 µM (inactive) | > 30 µM (inactive) |
